Experimental data: PubChem BioAssay AID248 (DTP/NCI, 2004)
Toxic doses and inconclusive results are not listed. No stated cut-off is given here; in the data, active means T/C of 150% or more; inactive means T/C below 125%.

Tested on: L1210 leukemia ip in BDF1 mice, survival T/C
Assay: NCI In Vivo Anticancer Drug Screen. Data for tumor model L1210 Leukemia (intraperitoneal) in B6D2F1 (BDF1) mice
Settings: endpoint: mean survival time, higher = longer survival
Procedure, shortened: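 Value reflects the ratio of survival in compound-treated mice to survival in vehicle-treated controls, with both groups carrying the same transplanted tumor.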

[1] = dose: 100.0 mg/kg/injection, schedule: Q01DX009 (ip), vehicle: gum acacia
[2] = dose: 100.0 mg/kg/injection, schedule: Q04DX003 (ip), vehicle: gum acacia
[3] = dose: 200.0 mg/kg/injection, schedule: Q01DX009 (ip), vehicle: gum acacia
[4] = dose: 200.0 mg/kg/injection, schedule: Q04DX003 (ip), vehicle: gum acacia
[5] = dose: 400.0 mg/kg/injection, schedule: Q01DX009 (ip), vehicle: gum acacia
[6] = dose: 400.0 mg/kg/injection, schedule: Q04DX003 (ip), vehicle: gum acacia
[7] = dose: 100.0 mg/kg/injection, schedule: Q01DX009 (ip), vehicle: saline
[8] = dose: 100.0 mg/kg/injection, schedule: Q04DX003 (ip), vehicle: saline
[9] = dose: 200.0 mg/kg/injection, schedule: Q01DX009 (ip), vehicle: saline
[10] = dose: 200.0 mg/kg/injection, schedule: Q04DX003 (ip), vehicle: saline
[11] = dose: 400.0 mg/kg/injection, schedule: Q01DX009 (ip), vehicle: saline
[12] = dose: 400.0 mg/kg/injection, schedule: Q04DX003 (ip), vehicle: saline

Measured: T/C

CN(C)CCOC(=O)N1c2ccccc2C(C)(C)c2ccccc21
inactive: dose: 5.8 mg/kg/injection, schedule: Q01DX001 (ip), vehicle: water 93 % of control | dose: 11.5 mg/kg/injection, schedule: Q01DX001 (ip), vehicle: water 98 % of control | dose: 23.0 mg/kg/injection, schedule: Q01DX001 (ip), vehicle: water 91 % of control | dose: 44.4 mg/kg/injection, schedule: Q01DX001 (ip), vehicle: water 95 % of control | dose: 50.0 mg/kg/injection, schedule: Q01DX001 (ip), vehicle: water 100 % of control | dose: 66.7 mg/kg/injection, schedule: Q01DX001 (ip), vehicle: water 97 % of control | dose: 150.0 mg/kg/injection, schedule: Q01DX001 (ip), vehicle: water 95 % of control

O=S(=O)(F)c1c(Cl)cccc1C[P+](c1ccccc1)(c1ccccc1)c1ccccc1
inactive: dose: 6.25 mg/kg/injection, schedule: Q01DX001 (ip), vehicle: saline with Tween-80 99 % of control | dose: 12.5 mg/kg/injection, schedule: Q01DX001 (ip), vehicle: saline with Tween-80 100 % of control | dose: 25.0 mg/kg/injection, schedule: Q01DX001 (ip), vehicle: saline 105 % of control

CCCCCCCCCCCCCCCCCC(=O)Nc1ccc(O)cc1
inactive: [1] 87 % of control | [2] 88 % of control | [3] 90 % of control | [4] 88 % of control | [5] 90 % of control | [6] 90 % of control

Cc1ccc(C(O)c2ccccc2)cc1 (stereo unspecified)
inactive: dose: 100.0 mg/kg/injection, schedule: Q01DX009 (ip), vehicle: saline with Tween-80 98 % of control | dose: 200.0 mg/kg/injection, schedule: Q01DX009 (ip), vehicle: saline with Tween-80 97 % of control

CCCCCCCCCCCCCCCCN(C)c1ccc(C=O)cc1
inactive: [7] 97 % of control | [8] 104 % of control | [9] 100 % of control | [10] 98 % of control | [11] 103 % of control | [12] 105 % of control

NNc1ccc(Cl)c(S(=O)(=O)O)c1
inactive: [7] 100 % of control | dose: 100.0 mg/kg/injection, schedule: Q04DX003 (ip), vehicle: alcohol 98 % of control | [9] 100 % of control | dose: 200.0 mg/kg/injection, schedule: Q04DX003 (ip), vehicle: alcohol 104 % of control | [11] 103 % of control | dose: 400.0 mg/kg/injection, schedule: Q04DX003 (ip), vehicle: alcohol 106 % of control

CCCCCCCCCC(CCCCCCCCC)NCC(C)OC(=O)c1ccc([N+](=O)[O-])cc1 (stereo unspecified)
inactive: dose: 75.0 mg/kg/injection, schedule: Q01DX001 (ip), vehicle: acetone 95 % of control | dose: 150.0 mg/kg/injection, schedule: Q01DX001 (ip), vehicle: acetone 95 % of control | dose: 300.0 mg/kg/injection, schedule: Q01DX001 (ip), vehicle: acetone 94 % of control

Cc1ccc2c(c1)SN(CN1C(=O)c3ccccc3C1=O)N2
inactive: dose: 100.0 mg/kg/injection, schedule: Q01DX009 (ip), vehicle: Klucel (hydroxypropylcellulose) (HPC) 103 % of control | dose: 100.0 mg/kg/injection, schedule: Q04DX003 (ip), vehicle: Klucel (hydroxypropylcellulose) (HPC) 94 % of control | dose: 200.0 mg/kg/injection, schedule: Q01DX009 (ip), vehicle: Klucel (hydroxypropylcellulose) (HPC) 93 % of control | dose: 200.0 mg/kg/injection, schedule: Q04DX003 (ip), vehicle: Klucel (hydroxypropylcellulose) (HPC) 96 % of control | dose: 400.0 mg/kg/injection, schedule: Q01DX009 (ip), vehicle: Klucel (hydroxypropylcellulose) (HPC) 90 % of control | dose: 400.0 mg/kg/injection, schedule: Q04DX003 (ip), vehicle: Klucel (hydroxypropylcellulose) (HPC) 91 % of control

OC12c3ccccc3C1(c1ccccn1)c1ccccc12 (stereo unspecified)
inactive: [1] 98 % of control | [2] 98 % of control | [3] 96 % of control | [4] 98 % of control | [5] 100 % of control | [6] 103 % of control

O=C(Nc1ccc(-c2nc3ccccc3[nH]2)cc1)c1ccc(C(=O)Nc2ccc(-c3nc4ccccc4[nH]3)cc2)cc1
inactive: dose: 15.0 mg/kg/injection, schedule: Q01DX Z (ip), vehicle: carboxymethylcellulose (CMC) 97 % of control | dose: 30.0 mg/kg/injection, schedule: Q01DX Z (ip), vehicle: carboxymethylcellulose (CMC) 97 % of control | dose: 60.0 mg/kg/injection, schedule: Q01DX Z (ip), vehicle: carboxymethylcellulose (CMC) 94 % of control | dose: 120.0 mg/kg/injection, schedule: Q01DX Z (ip), vehicle: carboxymethylcellulose (CMC) 100 % of control

Nc1ncnc(N)c1NC(=O)COc1ccc([N+](=O)[O-])cc1
inactive: dose: 100.0 mg/kg/injection, schedule: Q01DX001 (ip), vehicle: Klucel (hydroxypropylcellulose) (HPC) 102 % of control | dose: 200.0 mg/kg/injection, schedule: Q01DX001 (ip), vehicle: Klucel (hydroxypropylcellulose) (HPC) 94 % of control | dose: 400.0 mg/kg/injection, schedule: Q01DX001 (ip), vehicle: Klucel (hydroxypropylcellulose) (HPC) 100 % of control

CCN(CC)CCCOC(=O)N(Cc1ccc(Cl)cc1)C1CC1
inactive: dose: 25.0 mg/kg/injection, schedule: Q01DX009 (ip), vehicle: saline with Tween-80 100 % of control | dose: 50.0 mg/kg/injection, schedule: Q01DX009 (ip), vehicle: saline with Tween-80 93 % of control | dose: 100.0 mg/kg/injection, schedule: Q04DX003 (ip), vehicle: saline with Tween-80 102 % of control

CC(C)(C)O.[Zr]
inactive: dose: 25.0 mg/kg/injection, schedule: Q01DX009 (ip), vehicle: other 108 % of control | dose: 50.0 mg/kg/injection, schedule: Q01DX009 (ip), vehicle: other 97 % of control | dose: 100.0 mg/kg/injection, schedule: Q01DX009 (ip), vehicle: other 90 % of control | [8] 96 % of control | dose: 200.0 mg/kg/injection, schedule: Q01DX009 (ip), vehicle: other 103 % of control | [10] 98 % of control | [12] 94 % of control

CC/C(=C/C(F)(F)C(F)(F)C(F)(F)F)[N+](=O)[O-]
inactive: dose: 100.0 mg/kg/injection, schedule: Q01DX001 (ip), vehicle: carboxymethylcellulose (CMC) 112 % of control | dose: 200.0 mg/kg/injection, schedule: Q01DX001 (ip), vehicle: carboxymethylcellulose (CMC) 103 % of control

O=C1CC(C(=O)O)C(C(=O)O)O1 (stereo unspecified)
inactive: dose: 50.0 mg/kg/injection, schedule: Q01DX001 (ip), vehicle: saline 97 % of control | dose: 75.0 mg/kg/injection, schedule: Q01DX001 (ip), vehicle: saline 101 % of control | dose: 100.0 mg/kg/injection, schedule: Q01DX001 (ip), vehicle: saline 92 % of control | dose: 150.0 mg/kg/injection, schedule: Q01DX001 (ip), vehicle: saline 97 % of control | dose: 200.0 mg/kg/injection, schedule: Q01DX001 (ip), vehicle: saline 90 % of control

ClC(Cl)(Cl)CC(Br)C(Br)CBr (stereo unspecified)
inactive: dose: 100.0 mg/kg/injection, schedule: Q01DX001 (ip), vehicle: acetone 96 % of control | dose: 100.0 mg/kg/injection, schedule: Q01DX009 (ip), vehicle: acetone 95 % of control | dose: 100.0 mg/kg/injection, schedule: Q04DX003 (ip), vehicle: acetone 97 % of control | dose: 200.0 mg/kg/injection, schedule: Q01DX001 (ip), vehicle: acetone 98 % of control | dose: 200.0 mg/kg/injection, schedule: Q04DX003 (ip), vehicle: acetone 92 % of control | dose: 400.0 mg/kg/injection, schedule: Q01DX001 (ip), vehicle: acetone 98 % of control | dose: 400.0 mg/kg/injection, schedule: Q04DX003 (ip), vehicle: acetone 91 % of control
